Target: T1, DcDop2 (Diaphorina citri, UniProt A0A3Q0INR4)
T1 construct: gene LOC103507230; full ORF (2049 nt, 682 residues) in pcDNA3.1, transiently expressed in CHO-WTA11 cells (Galpha16 and aequorin)
T1 sequence (A0A3Q0INR4 1-682): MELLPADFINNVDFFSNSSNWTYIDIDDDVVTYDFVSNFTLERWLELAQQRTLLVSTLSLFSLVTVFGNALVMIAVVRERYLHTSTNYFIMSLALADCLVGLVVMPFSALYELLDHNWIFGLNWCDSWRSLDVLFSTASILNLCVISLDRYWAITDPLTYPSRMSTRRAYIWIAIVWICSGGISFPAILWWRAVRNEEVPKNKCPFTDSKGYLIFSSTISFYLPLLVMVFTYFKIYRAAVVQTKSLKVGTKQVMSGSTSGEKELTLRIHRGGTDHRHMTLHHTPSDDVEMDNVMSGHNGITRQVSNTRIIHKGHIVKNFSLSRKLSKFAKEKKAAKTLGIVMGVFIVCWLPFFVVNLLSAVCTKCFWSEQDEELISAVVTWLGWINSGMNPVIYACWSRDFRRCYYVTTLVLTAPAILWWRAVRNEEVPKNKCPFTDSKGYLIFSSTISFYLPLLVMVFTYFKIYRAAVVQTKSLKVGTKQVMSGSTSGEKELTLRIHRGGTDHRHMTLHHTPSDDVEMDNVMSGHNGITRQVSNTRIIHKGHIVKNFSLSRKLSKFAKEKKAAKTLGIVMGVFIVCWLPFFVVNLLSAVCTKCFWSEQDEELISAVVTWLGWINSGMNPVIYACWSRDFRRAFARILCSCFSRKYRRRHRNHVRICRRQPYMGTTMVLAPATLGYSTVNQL
Assay: aequorin calcium mobilization luminescence in transfected CHO-WTA11 cells
Type: cell-based

`NCCc1ccc(O)c(O)c1` [DA, dopamine] showed an EC50 of 4.05 nM.

From paper PMC13286569 (eLife, 2026)
